From patent US9433607B2, “Composition for prevention or treatment of cancer comprising N-methylenenaphtho[2,1-b]furan-2-carbohydrazide derivatives as an active ingredient” (KOREA RESEARCH INSTITUTE OF BIOSCIENCE AND BIOTECHNOLOGY, priority 2012, dated 2016) come the findings set out here.

The subject of one assay is HeLa cell line. The assay can be described thus: Anti-proliferative activity in HeLa cells (MTT assay). It is filed as cell-based. Conditions: HeLa cell line; for IC50: Homo sapiens. As to the method:
Particularly, HeLa cell line (ATCC, USA) was treated with the compounds of Table 1 respectively, and then IC50 (the half maximal inhibitory concentration) was investigated (Table 1).
HeLa cells were treated with 100 nM, 250 nM, 500 nM and 1 μM of ethyl(2-methyl-3{(E)-[(naphtho[2,1-b]furan-2-ylcarbonyl)hydrazono]methyl}-1H-indole-1-yl)acetate or DMSO for 4 days. Then, the cell growth was confirmed by MTT assay. All the obtained numbers were calculated by normalizing the value of Day 0. The data presents the mean value obtained from the assay performed in triplicate.
Particularly, HeLa cells were distributed in a 96-well plate at the density of 2×10^3 cells/well. The cells were treated with DMSO or the compound of the present invention, to which MTT reagent was added at the concentration of 10 μl/well. 2 hours later, OD450 was measured, which became the value of Day 0. 4 days later, MTT reagent was added thereto again. 2 hours later, OD450 was measured. The data presents the mean value obtained from the assay performed in triplicate.
For orientation: Tetrazolium dyes change colour on reduction, which living cells bring about.

The test system of another assay is K562. Description: Cytotoxicity MTT assay, K562. It is filed as cell-based. To be noted: Homo sapiens, 96 h, 4 days. As to the method:
(§1) Particularly, K562, MCF7 (Bio-Evaluation Center, Korea Research Institute of Bioscience and Biotechnology, Korea), and the multi-drug resistant cell lines thereof, K562/ADR and MCF7/ADR (Bio-Evaluation Center, Korea Research Institute of Bioscience and Biotechnology, Korea) were cultured in microtiter plate (1-3×10^3 cells/well). Then, the cells were treated with ethyl(2-methyl-3{(E)-[(naphtho[2,1-b]furan-2-ylcarbonyl)hydrazono]methyl}-1H-indole-1-yl)acetate, doxorubicin, or taxol, followed by culture for 4 days. Cytotoxicity was investigated by MTT assay by the same manner as described in Example <1-2>. IC50 was calculated by long-dose response curve. The data presents the mean value obtained from the assay performed in triplicate (Table 3).

Another assay deals with K562/ADR. The assay can be described thus: Cytotoxicity MTT assay, multi-drug resistant K562/ADR. The format is cell-based. Conditions: for IC50: Homo sapiens, 96 h, K562/ADR, MTT, 4 days; for resistance factor (number in the bracket): ratio of IC50 of K562/ADR to IC50 of parent K562. As to the method:
as §1
(§2) The resistance factor of the multi-drug resistant cell line indicates the ratio of IC50 of the multi-drug resistant cell line to IC50 of the parent cell line showing no resistance, which was presented as a number in the bracket.

Another assay relates to MCF7. Description: Cytotoxicity MTT assay, MCF7. It is filed as cell-based. To be noted: Homo sapiens, 96 h, 4 days. As to the method: as §1
For the next assay, the system named is MCF7/ADR. The assay can be described thus: Cytotoxicity MTT assay, multi-drug resistant MCF7/ADR. The format is cell-based. To be noted: for IC50: Homo sapiens, NCI/ADR-RES, 96 h, MCF7/ADR, MTT, 4 days; for resistance factor (number in the bracket): ratio of IC50 of MCF7/ADR to IC50 of parent MCF7. On the procedure:
as §1, §2

The next assay relates to HeLa cells. Description: Immunofluorescence of intracellular microtubules and chromosomes. It is filed as cell-based. To be noted: 17 hours, Taxol 100 μM, nocodazole 200 ng/ml, compound 5 μM. On the procedure:
To investigate the effect of ethyl(2-methyl-3{(E)-[(naphtho[2,1-b]furan-2-ylcarbonyl)hydrazono]methyl}-1H-indole-1-yl)acetate on intracellular microtubules, HeLa cells were treated with DMSO, Taxol (100 μM), nocodazole (200 ng/ml), or ethyl(2-methyl-3{(E)-[(naphtho[2,1-b]furan-2-ylcarbonyl)hydrazono]methyl}-1H-indole-1-yl)acetate (5 μM) for 17 hours. After fixing the cells, the cells were immuno-stained with Alexa Fluor 488-conjugated anti-tubulin antibody and Hoechst 33342 to confirm α-tubulin and chromosomes.

Assay [1] relates to FVB/N mouse induced with skin tumor. The assay can be described thus: DMBA/TPA induced skin tumor model. The format is in vivo. On the procedure: In this invention, the male FVB/N mice (6-7 weeks, Jackson Laboratory, USA) were raised under the condition of 12 hr bright lighting/12 hr dim lighting at the temperature of 24±2° C. with the humidity of 50±10% with water and feed provided freely. The care and process of the test animal was reviewed and approved by Institutional Animal Care and Use Committee (IACUC), Korea Research Institute of Bioscience and Biotechnology (KRIBB). DMBA (7,12-dimethylbenz[α]anthracene), TPA (12-O-tetradecanoylphorbol-13-acetate) and cholchicine were purchased from Sigma-Aldrich, and the synthesized ethyl(2-methyl-3{(E)-[(naphtho[2,1-b]furan-2-ylcarbonyl)hydrazono]methyl}-1H-indole-1-yl)acetate was provided from Dr. Thimmegowda.
Particularly, the dorsal skin of the said FVB/N mouse was shaved two days before the experiment. 100 μg of DMBA was added to 0.2 ml of acetone, which was treated to the mouse by single-local administration for 1 week to induce tumor. 5 fig of TPA was added to 0.2 ml of acetone, which was treated to the above mouse induced with tumor […] for 15 weeks to grow the tumor. 500 nM of ethyl(2-methyl-3{(E)-[(naphtho[2,1-b]furan-2-ylcarbonyl)hydrazono]methyl}-1H-indole-1-yl)acetate or cholchicine was dissolved in 0.2 ml of acetone, which was treated to the above mouse locally for 30 minutes each time for 15 weeks. Each group was composed of at least 10 mice and total 4 groups were prepared:
Group 1: DMBA and acetone treated group (negative control)
Group 2: DMBA and TPA treated group (positive control)
Group 3: DMBA/TPA and cholchicine treated group (experimental group 1)
Group 4: DMBA/TPA and ethyl(2-methyl-3{(E)-[(naphtho[2,1-b]furan-2-ylcarbonyl)hydrazono]methyl}-1H-indole-1-yl)acetate treated group (experimental group 2).
In addition, skin tumor such as papilloma was checked every week during the whole period of experiment. The tumor in the size of at least 2 mm was judged as positive. 15 weeks later, the mice were sacrificed with CO2. The skin tumor was extracted for histopathological/biochemical analysis.
The average number and the volume of tumor in each group were calculated.
Each mouse group was treated with different materials by the same manner as described in Example <8-2>, followed by observation for 15 weeks, and then the number of mice having skin tumor was counted. Tumor development rate was presented as %.
The mouse induced with skin tumor by the same manner as described in Example <8-2> was treated with DMBA, and then the induced tumors were observed and weighed for 15 weeks to produce the average weight of tumor.

A word on the IC50: it is the concentration that inhibits the measured activity by half. Low readings indicate higher potency, high ones lower potency. `Cc1c(/C=N/NC(=O)c2cc3c(ccc4ccccc43)o2)c2ccccc2n1C` [A]: in the assay with HeLa cell line, the “decrease of anti-proliferative activity compared with STK899704” value is recorded as “two times decreased” and the midpoint of inhibition, the IC50, lay at 440 nM.

In the assay with HeLa cell line, `C=CCn1c(C)c(/C=N/NC(=O)c2cc3c(ccc4ccccc43)o2)c2ccccc21` [B, (E)-N′-((1-allyl-2-methyl-1H-indol-3-yl)methylene)naphtho[2,1-b]furan-2-carbohydrazide] returned an IC50 of 1960 nM.

`Cc1c(/C=N/NC(=O)c2cc3c(ccc4ccccc43)o2)c2ccccc2n1CC#N` [C, (E)-N′-((1-(cyanomethyl)-2-methyl-1H-indol-3-yl)methylene)naphtho[2,1-b]furan-2-carbohydrazide]: inhibition with HeLa cell line was half-maximal at 2610 nM (IC50).

In turn, `O=C(N/N=C/c1ccc(-c2ccc([N+](=O)[O-])cc2)o1)c1cc2c(ccc3ccccc32)o1` [Compound F, (E)-N′-((5-(4-nitrophenyl)furan-2-yl)methylene)naphtho[2,1-b]furan-2-carbohydrazide] registered an IC50 in the assay on HeLa cell line of 2880 nM.

`O=C(N/N=C/c1ccc(-c2ccc(Br)cc2)o1)c1cc2c(ccc3ccccc32)o1` [D] returned an IC50 in the assay with HeLa cell line of 2240 nM.

As for `COc1cccc2c1C(=O)c1c(O)c3c(c(O)c1C2=O)C[C@@](O)(C(=O)CO)C[C@@H]3O[C@H]1C[C@H](N)[C@H](O)[C@H](C)O1` [Doxorubicin], the half-inhibitory concentration (IC50) in the assay on K562 turned out to be 3300 nM; in the assay on K562/ADR it was 3.8 mM; in the assay with MCF7, 53 µM; in the assay on MCF7/ADR, 5.23 mM. The entries for the “resistance factor (number in the bracket)” value in the assay with K562/ADR and in the assay with MCF7/ADR were 1153 and 98, respectively.

With `O=C(N/N=C/c1ccc(-c2cccc(Cl)c2Cl)o1)c1cc2c(ccc3ccccc32)o1` [E], the IC50 in the assay on HeLa cell line was found to be 2610 nM. This lies in the single-digit micromolar range.

In the assay with HeLa cell line, `Cc1ccc(-c2ccc(/C=N/NC(=O)c3cc4c(ccc5ccccc54)o3)o2)cc1[N+](=O)[O-]` [G, (E)-N′-((5-(4-methyl-3-nitrophenyl)furan-2-yl)methylene)naphtho[2,1-b]furan-2-carbohydrazide] came in with an IC50 of 3110 nM.

`O=C(N/N=C/c1ccc([N+](=O)[O-])o1)c1cc2c(ccc3ccccc32)o1` [H, (E)-N′-((5-nitrofuran-2-yl)methylene)naphtho[2,1-b]furan-2-carbohydrazide] yielded an IC50 with HeLa cell line of 5400 nM. Compared with the last compound, the IC50 is about 1.7-fold higher.

`O=C(N/N=C/c1ccc(OCc2ccccc2)cc1)c1cc2c(ccc3ccccc32)o1` [I, (E)-N′-(4-(benzyloxy)benzylidene)naphtho[2,1-b]furan-2-carbohydrazide] came in with an IC50 in the assay with HeLa cell line of 3670 nM. The IC50 values of the last two compounds are within 1.5-fold of each other.

`COc1cccc(/C=N/NC(=O)c2cc3c(ccc4ccccc43)o2)c1O` [J, (E)-N′-(2-hydroxy-3-methoxybenzylidene)naphtho[2,1-b]furan-2-carbohydrazide]: in the assay on HeLa cell line, the IC50 was 3970 nM.

For `CC(=O)O[C@H]1C(=O)[C@@]2(C)[C@H]([C@H](OC(=O)c3ccccc3)[C@]3(O)C[C@H](OC(=O)[C@H](O)[C@@H](NC(=O)c4ccccc4)c4ccccc4)C(C)=C1C3(C)C)[C@]1(OC(C)=O)CO[C@@H]1C[C@@H]2O` [Taxol], the IC50 in the assay on K562 was 2000 nM; with K562/ADR, 1.82 mM; in the assay with MCF7, 4.3 µM; with MCF7/ADR, 1.62 mM. The “resistance factor (number in the bracket)” value with K562/ADR is 911; in the assay with MCF7/ADR it was 377. The “effect on microtubules and chromosomes (immunostaining)” value in the assay with HeLa cells is “strengthened the polymerization of tubulin so that multi-polar spindle fibers with condensed chromosomes were produced”.

On to `COc1cc2c(c(OC)c1OC)-c1ccc(OC)c(=O)cc1[C@@H](NC(C)=O)CC2` [cholchicine, reference compound], for which the “number of skin tumor” value in assay [1] (500 nM in 0.2 ml acetone, local, 15 weeks) is “significantly reduced”. The “weight of tumor compared with positive control” value in assay [1] (15 weeks) is reported as “significantly lighter”. In assay [1] (15 weeks, 500 nM local), the “average volume of skin tumor reduced compared with positive control” value was 31.5% and the “decrease of average number of skin tumor compared with positive control” value was 2.86 times. Moreover, in assay [1] (tumor of at least 2 mm, positive control from 8th week), the “week to which tumor formation was postponed” value was 9 week.

Regarding `COC(=O)Nc1nc2ccc(C(=O)c3cccs3)cc2[nH]1` [nocodazole, reference compound], the “effect on microtubules and chromosomes (immunostaining)” value in the assay with HeLa cells is “chromosomes were not fully condensed and microtubules were destroyed”.
